In data set [1] the test system is bacteria (Clostridium)-derived collagenase. The data set can be described thus: Inhibitory activity against bacteria (Clostridium)-derived collagenase (method of Nagai, FITC-derivatized bovine type I collagen). The format is biochemical. On the procedure: (§1) (1) Inhibitory activity against collagenases
(§2) The inhibitory activity against human fibroblast collagenase (collagenase derived from human fibroblasts), tadpole-derived collagenase and bacteria (Clostridium)-derived collagenase was assayed in accordance with the method of Nagai [see Ensho, 4(2), 123 (1984)] using a fluorescence-labeledcollagen (FITC-derivatized bovine type I collagen).

Data set [2] concerns the target T1, human fibroblast collagenase (Homo sapiens, UniProt P03956).
T1 construct: collagenase derived from human fibroblasts; from tissue; host or cells: human fibroblasts
T1 sequence (P03956 100-469): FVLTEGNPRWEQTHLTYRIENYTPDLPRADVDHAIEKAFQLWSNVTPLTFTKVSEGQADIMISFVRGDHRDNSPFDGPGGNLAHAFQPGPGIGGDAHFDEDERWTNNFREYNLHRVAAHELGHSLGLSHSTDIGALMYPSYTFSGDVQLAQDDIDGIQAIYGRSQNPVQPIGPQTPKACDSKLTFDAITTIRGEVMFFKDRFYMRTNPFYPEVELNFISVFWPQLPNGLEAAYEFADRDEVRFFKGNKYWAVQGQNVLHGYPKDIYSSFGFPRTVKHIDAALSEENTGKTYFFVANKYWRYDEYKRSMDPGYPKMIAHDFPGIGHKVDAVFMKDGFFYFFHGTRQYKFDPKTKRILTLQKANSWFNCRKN
The data set can be described thus: Inhibitory activity against human fibroblast collagenase (method of Nagai, FITC-derivatized bovine type I collagen). The format is biochemical. On the procedure: as §1, §2

Data set [3] deals with mice. The data set can be described thus: Acute toxicity test (LD50) in mice. The class given is in vivo. From the text:
The toxicity of the new peptide compounds of this invention is as follows:
Acute toxicity test (LD50) in mice

The target of data set [4] is α-chymotrypsin (Bos taurus, UniProt P00766). The data set can be described thus: Inhibitory activity against α-chymotrypsin (method of Laskowski, thermally denatured casein substrate). The format is biochemical. To be noted: for inhibition at 4000 µM: at 4.0 × 10^-3 M. On the procedure: (§3) (3) Inhibitory activity against thermolysin, trypsin and α-chymotrypsin
(§4) This was assayed in accordance with the method of Laskowski [see Meth. Enzymol., 2, 8 (1955)] using a thermally denatured casein as substrate for the respective enzymes (i.e. thermolysin, trypsin and α-chymotrypsin).

Data set [5] relates to sword bean-derived urease. The experiment in a line: Inhibitory activity against urease (method of Kobashi et al.). The class given is biochemical. The note with it: at 4.0 × 10^-3 M. On the procedure:
(2) Inhibitory activity against urease
The inhibitory activity against urease was assayed in accordance with the method of Kobashi et al. [see Biochem. Biophys.

In data set [6] the target is T2, thermolysin (Bacillus thermoproteolyticus, UniProt P00800).
T2 sequence (P00800 233-548): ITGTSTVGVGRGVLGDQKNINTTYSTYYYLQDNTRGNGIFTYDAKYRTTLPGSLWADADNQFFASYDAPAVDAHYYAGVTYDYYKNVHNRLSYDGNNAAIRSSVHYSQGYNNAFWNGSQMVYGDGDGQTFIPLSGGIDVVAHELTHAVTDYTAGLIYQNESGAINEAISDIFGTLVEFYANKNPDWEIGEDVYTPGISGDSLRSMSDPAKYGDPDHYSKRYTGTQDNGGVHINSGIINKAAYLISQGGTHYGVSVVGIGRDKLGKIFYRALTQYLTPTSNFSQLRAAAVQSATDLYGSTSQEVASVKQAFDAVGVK
The data set can be described thus: Inhibitory activity against thermolysin (method of Laskowski, thermally denatured casein substrate). The format is biochemical. The note with it: for inhibition at 4000 µM: at 4.0 × 10^-3 M. On the procedure: as §3, §4

Data set [7] relates to trypsin. The experiment in a line: Inhibitory activity against trypsin (method of Laskowski, thermally denatured casein substrate). The format is biochemical. On the procedure: as §3, §4
Data set [8] deals with T3, tadpole-derived collagenase (Aquarana catesbeiana, UniProt Q11133).
T3 construct: collagenase from tadpoles; from tissue
T3 sequence (Q11133 89-384): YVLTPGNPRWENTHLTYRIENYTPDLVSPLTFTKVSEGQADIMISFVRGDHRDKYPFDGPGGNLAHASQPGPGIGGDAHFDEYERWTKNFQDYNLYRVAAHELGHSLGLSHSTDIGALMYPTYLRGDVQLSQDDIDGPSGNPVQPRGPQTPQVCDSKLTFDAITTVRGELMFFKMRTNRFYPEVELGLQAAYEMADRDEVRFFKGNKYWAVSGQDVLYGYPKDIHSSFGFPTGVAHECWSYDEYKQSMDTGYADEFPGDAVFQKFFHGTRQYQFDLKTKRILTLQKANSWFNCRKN
The data set can be described thus: biochemical. On the procedure:
as §1, §2

Where [9] appears, read: read-out: IC50 Human fibroblast collagenase.

pIC50: −log10 of the molar value. Read-outs that look alike come from different tables or passages of the source. Square brackets hold non-standard residues; d marks the D form. Peptide text beside a SMILES is read from it. * marks the point of attachment. Benzoyl(4-OH) = O=C(c1ccc(O)cc1)*; 4Abz = Nc1ccc(C(=O)O)cc1; Boc = CC(C)(C)OC(=O)*; Bz = O=C(c1ccccc1)*; NHOH = ON*

A word on the pIC50: it is −log10 of the IC50, conventionally taken in molar units. What is called inhibition is the percentage by which the read-out fell short of the control. For the compound `CC(C)C[C@@H](NC(=O)[C@@H]1CCCN1C(=O)CNC(=O)c1ccc(N)cc1)C(=O)N[C@H](C)C(=O)NO` [Example 6] (H-[4Abz]GP[dL][dA]-{NHOH}; N-terminus and C-terminus assumed), the “Inhibition (%) Bacterial collagenase” value in data set [1] (at 2.0 × 10^-4 M) was determined as 7.1%. The pIC50 in data set [2] (setting [9]) was 5.89. For the same compound, in data set [3], the “LD50 Intraperitoneal administration” value was over 2000 mg/kg and the “LD50 Intravenous administration” value is over 200 mg/kg. The inhibition at 2000 µM in data set [4] (at 2.0 × 10^-3 M) amounted to 26.4%. Moreover, the “Inhibition (%) Urease” value in data set [5] is reported as 2.0%. Moreover, the inhibition at 4000 µM in data set [6] worked out at 26.8%. Besides, in data set [7] (at 2.0 × 10^-3), the “Inhibition (%) Trypsin” value is 6.5%.

For the compound `CC(C)C[C@@H](NC(=O)[C@@H]1CCCN1C(=O)CNC(=O)c1ccc(O)cc1)C(=O)N[C@H](C)C(=O)NO` [Example 7, p-Hydroxybenzoyl-glycyl-L-prolyl-D-leucyl-D-alanylhydroxamic acid] ({Benzoyl(4-OH)}-GP[dL][dA]-{NHOH}), the pIC50 in data set [2] (setting [9]) is 5.93; in data set [8] it was 5.98. In addition, the “LD50 Intraperitoneal administration” value in data set [3] was over 2000 mg/kg. Further, the “LD50 Intravenous administration” value in data set [3] is over 200 mg/kg. Besides, the inhibition at 4000 µM was found to be 22.3% in data set [4] and 60.4% in data set [6].

For `CC(C)C[C@H](NC(=O)[C@@H]1CCCN1C(=O)CNC(=O)OC(C)(C)C)C(=O)N[C@H](C(=O)NO)C(C)C` [Example 18, BocGlyProLeuValNHOH] (Boc-GPLV-{NHOH}), the pIC50 in data set [2] (setting [9]) was 5.51; in data set [8] it was 5.01. Further, 4000 µM produced 0% inhibition in data set [4]. The inhibition at 10100 µM in data set [6] (at 1.01 × 10^-2 M) stood at 50%.

With `CC(C)C[C@H](NC(=O)[C@@H]1CCCN1C(=O)CNC(=O)c1ccccc1)C(=O)N[C@@H](C)C(=O)NO` [Example 34, BzGlyProLeuAlaNHOH] (Bz-GPLA-{NHOH}), the pIC50 in data set [2] is 5.57; in data set [8] it was 5.11. The same compound yielded an inhibition at 200 µM in data set [4] (at 2.0 × 10^-4 M) of 0%. In data set [6], the inhibition at 4000 µM was 35%.

Regarding `CC(C)C[C@@H](NC(=O)[C@@H]1CCCN1C(=O)CNC(=O)c1ccccc1)C(=O)N[C@H](C)C(=O)NO` [Example 35, BzGlyPro-D-Leu-D-AlaNHOH] (Bz-GP[dL][dA]-{NHOH}), the negative-log IC50 (pIC50) was 5.19 in data set [2] and 5.51 in data set [8]. Also, the inhibition at 100 µM in data set [4] (at 1.0 × 10^-4 M) was 12.8%. For the same compound, at 4000 µM the inhibition in data set [6] was 38%.

Regarding `CC(C)C[C@@H](NC(=O)[C@@H](CC(C)C)NC(=O)[C@@H]1CCCN1C(=O)CN1C(=O)c2ccccc2C1=O)C(=O)NO` [Example 40, PTHGlyPro-D-Leu-D-LeuNHOH], the “Inhibition (%) Bacterial collagenase” value in data set [1] (at 4.0 × 10^-3 M) is 20.7%. For the same compound, the pIC50 in data set [2] (setting [9]) was 5.44; in data set [8] (read-out: IC50 Tadpole collagenase), 5.51. 10000 µM produced 22.3% inhibition in data set [4] (at 1.0 × 10^-2 M). Further, the “Inhibition (%) Urease” value in data set [5] was found to be 3.3%. In data set [6], this compound showed an inhibition at 4000 µM of 32.2%. The “Inhibition (%) Trypsin” value in data set [7] (at 1.0 × 10^-2) stood at 21.6%.

For `CC(C)C[C@H](NC(=O)[C@@H]1CCCN1C(=O)CNC(=O)c1ccc(N)cc1)C(=O)N[C@@H](C)C(=O)NO` [Example 41, AcOH.ABAGlyProLeuAlaNHOH] (H-[4Abz]GPLA-{NHOH}), the pIC50 in data set [2] (setting [9]) was 5.43; in data set [8], 5.40. Besides, in data set [3], the “LD50 Intraperitoneal administration” value is over 2000 mg/kg. Further, in data set [3], the “LD50 Intravenous administration” value is over 200 mg/kg. Besides, the inhibition at 20 µM in data set [4] (at 2.0 × 10^-5 M) was 27.3%; in data set [6] (at 2.0 × 10^-5 M), 4%.
